Results from PMC6736360, “P-Glycoprotein–Mediated Efflux Reduces the In Vivo Efficacy of a Therapeutic Targeting the Gastrointestinal Parasite Cryptosporidium” (The Journal of Infectious Diseases, 2019).
≈ marks a conversion by molar mass, not a printed value. Entries after “also recorded” stand apart in the source; their conditions may differ. Read-outs that look alike come from different tables or passages of the source.

Tests used:
[1] = In vitro solubility at pH 2 and 6.5; assay type: physicochemical
Protocol: Figure 1. Structures, in vitro efficacy, and physicochemical properties of bumped kinase inhibitors (BKIs). […] Solubilities for each BKI were measured at pH 2 and 6.5, to represent the stomach and small intestinal environments, respectively. The human effective permeability (Peff) was predicted as described in Materials and Methods.

[2] = Mouse oral plasma pharmacokinetics with or without elacridar; assay type: in vivo, mice; conditions: for AUC(0-inf) / Cmax / Tmax: mouse, plasma, po, mouse plasma, oral, 1369 60 mg/kg, 1318 50 mg/kg
Protocol: Mouse oral pharmacokinetic (PK) studies were performed as previously described^1. Briefly, blood samples were taken by tail bleeding into heparinized tubes at designated time points and centrifuged to obtain plasma. The samples were frozen and stored at -20°C until extraction and analysis. PK calculations of Tmax, Cmax, AUC, oral clearance, and half-life were performed using Pharsight Phoenix WinNonlin software (Certara, St. Louis, MO).

C. parvum [3] = assay: IFN-γ KO mouse model of Cryptosporidium infection; assay type: in vivo, mice; conditions: for Effect of elacridar coadministration on in vivo efficacy: IFN-γ KO mice, once daily for 5 days
Protocol: Efficacy in female IFN-γ KO mice (B6.129S7-Ifngtm1Ts/J; Jackson Laboratories) aged 8–10 weeks was evaluated as previously described. Beginning on day 6 after infection, mice were dosed with 30 mg/kg BKI1318 suspended in 0.2 mL of vehicle, 15 mg/kg elacridar in 0.1 mL of vehicle followed 15 minutes later by 30 mg/kg BKI1318 in 0.1 mL of vehicle, or 0.2 mL of vehicle only once daily for 5 days. Fecal specimens were collected daily from each group and weighed. Each fecal sample was checked for luminescence on the day of collection, and the number of relative light units was determined and normalized to fecal sample weights.

C. parvum [4] = system: C. parvum; parameters: method as in PMID 28329187; conditions: previously published study; cited from earlier work
Cryptosporidium = system: Cryptosporidium; parameters: method as in PMID 28329187; conditions: cited from earlier work
Caco-2 cells = assay: Caco-2 trans-well apparent permeability assay; assay type: in vitro ADME; conditions: Caco-2
Protocol: To initially characterize the permeability of BKIs 1294, 1369, and 1318, the software MedChem Designer (Simulations +, Lancaster, CA) was used to predict the Peff. The in vitro apparent permeability (Papp) was carried out by Absorption Systems LP (Exton, PA) with a Caco-2 trans-well assay. Caco-2 cells (clone C2BBe1) were obtained from American Type Culture Collection (Manassas, VA) were grown to confluence on collagen-coated, microporous membranes in 12-well assay plates. The permeability assay buffer was Hanks’ balanced salt solution (HBSS) containing 10 mM HEPES and 15 mM glucose at a pH of 7.4. The buffer in the receiver chamber also contained 1% bovine serum albumin. The dosing solution concentration was 5 µM BKI in assay buffer, and the cell monolayers were dosed on the apical side (A?B) or basolateral side (B?A) and incubated at 37°C with 5% CO2 in a humidified incubator. After 120 minutes, samples were taken from the donor and receiver chambers in duplicate. The Papp was calculated with equation (1) and the percent recovery with equation (2).
Papp = (dCr/dt) × Vr/(A × CA) (1)
Percent Recovery = 100 × ((Vr × Cr^final) + (Vd × Cd^final))/(Vd × […]) (2)
where dCr/dt is the slope of the cumulative concentration in the receiver compartment versus time in µM s^-1; Vr is the volume of the receiver compartment in cm^3; Vd is the volume of the donor compartment in cm^3; A is the area of the insert (1.13 cm^2 for 12-well); CA is the average of the nominal dosing concentration and the measured 120 minute donor concentration in µM; CN is the nominal concentration of the dosing solution in µM; Cr^final is the cumulative receiver concentration in µM at the end of the incubation period; Cd^final is the concentration of the donor in µM at the end of the incubation period.
To ensure no damage was inflicted to the cell monolayers during the flux period, lucifer yellow flux was also measured post-experimentally for each monolayer. To determine whether BKIs 1294, 1369, and 1318 were substrates of P-gp in vitro, P-gp efflux was characterized using the Caco-2 permeability assay protocol with a few modifications. The dosing solution concentration was 5 μM of BKI in the assay buffer +/- 1 μM valspodar. Cells were first pre-incubated for 30 minutes with HBSS containing +/- 1 μM valspodar. Cell monolayers were dosed on the apical side (A?B) or basolateral side (B?A), and incubated at 37°C with 5% CO2 in a humidified incubator. Samples were taken from the donor and receiver chambers at 120 minutes. Each determination was performed in duplicate.

[5] = Mouse gastrointestinal tissue pharmacokinetics; assay type: in vivo, mice; conditions: for AUC(0-t) / Cmax / Tmax: mouse, po
Protocol: At multiple time points following BKI1318 administration, mice were euthanized, and the GI tract was separated into segments corresponding to the duodenum, jejunum, ileum, and cecum/colon. […] At 0.5, 1, 2, 4, 8, and 12 hours, three mice in each group were sacrificed by cervical dislocation, and the duodenum, jejunum, ileum, and cecum/ascending colon were immediately collected. Each section of the GI tract was flushed with Dulbecco's phosphate-buffered saline, weighed, and placed in storage at -80°C. On the day of homogenization, 0.9% NaCl was added to each sample to achieve 200 mg/mL tissue concentration. Samples were homogenized using a handheld motorized homogenizer (Fisher Scientific, Waltham, MA) on ice and stored at -20°C until extraction and analysis. To report tissue concentrations, 1 gram of tissue was estimated to be 1 mL of volume.

[6] = pH 2, represents stomach, read-out: Solubility (pH 2)
[7] = 30 mg/kg elacridar 15 minutes before, read-out: AUC0-inf w/ Elacridar
[8] = 30 mg/kg elacridar 15 minutes before, read-out: Cmax w/ Elacridar
[9] = 30 mg/kg elacridar 15 minutes before, read-out: Tmax w/ Elacridar
[10] = mice, 50 mg/kg oral, 30 mg/kg elacridar, P < .05

## CCOc1ccc2cc(-c3nn(CC4CCN(C)CC4)c4ncnc(N)c34)ccc2n1 [BKI1369]
[1]; [6]
  solubility: > 100 µM
[2]; mice, 60 mg/kg oral, 30 mg/kg elacridar
  Change in plasma pharmacokinetics when elacridar administered before: not a significant change; also recorded: not significantly different
[2]; [7]
  AUC(0-inf): 91.4 ± 5 µM·h
[2]; [8]
  Cmax: 4.1 ± 0.3 µM
[2]; [9]
  Tmax: 4 ± 1.6 h
[2]; alone, read-out: AUC0-inf
  AUC(0-inf): 75.6 ± 8.9 µM·h
[2]; alone, read-out: Cmax
  Cmax: 4.2 µM
[2]; alone, read-out: Tmax
  Tmax: 2 h
C. parvum [3]
  Effect of elacridar coadministration on in vivo efficacy: no effect; also recorded: did not affect
C. parvum [4]
  C. parvum reduction in mouse model of cryptosporidiosis: > 2 log
Cryptosporidium
  Efficacy in neonatal mouse model of Cryptosporidium infection: efficacious

## CCOc1ccc2cc(-c3nn(CC4CCNCC4)c4ncnc(N)c34)ccc2n1 [BKI1318]
[1]; [6]
  solubility: > 100 µM
[1]; pH 6.5, represents small intestine, read-out: Solubility (pH 6.5)
  solubility: 56 µM (≈ 22.6 µg/mL)
Caco-2 cells
  A → B Papp, fold lower than BKI1369 and BKI1294: approximately 50 fold
[2]; mice
  Oral clearance with elacridar, fold greater than observed for BKI1369: 5 fold
[2]; mice, 50 mg/kg oral, 30 mg/kg elacridar
  Oral clearance (clearance/bioavailability) with elacridar coadministration: 207 mL/h
[2]; [10]
  Increase of plasma AUC0–∞ by elacridar coadministration: approximately 2 fold
  Increase of plasma Cmax by elacridar coadministration: approximately 2 fold
[2]; [7]
  AUC(0-inf): 12 ± 1.6 µM·h
[2]; [8]
  Cmax: 1.8 µM
[2]; [9]
  Tmax: 2 h
[2]; alone, read-out: AUC0-inf
  AUC(0-inf): 6.6 ± 1.7 µM·h
[2]; alone, read-out: Cmax
  Cmax: 1 µM
[2]; alone, read-out: Tmax
  Tmax: 2.3 h
[5]; mice, cecum/colon tissue
  Effect of elacridar on levels in the cecum/colon: did not significantly affect
[5]; mice, duodenum tissue, P < .05
  Increase of duodenum exposure when elacridar administered before: approximately 2 fold
[5]; mice, ileum tissue, P < .05
  Increase of ileum exposure when elacridar administered before: approximately 3 fold
[5]; mice, jejunum tissue, P < .05
  Increase of jejunum exposure when elacridar administered before: approximately 2 fold
[5]; cecum/colon, 30 mg/kg, Cecum/Colon, BKI 1318 alone, read-out: AUC0-12
  AUC(0-t): 109 µM·h
[5]; cecum/colon, 30 mg/kg, Cecum/Colon, BKI 1318 alone, read-out: Observed Cmax
  Cmax: 14.4 µM
[5]; cecum/colon, 30 mg/kg, Cecum/Colon, BKI 1318 alone, read-out: Tmax
  Tmax: 9.3 h
[5]; cecum/colon, Cecum/Colon, with elacridar, read-out: AUC0-12 w/ Elacridar
  AUC(0-t): 65.5 ± 4 µM·h
[5]; cecum/colon, Cecum/Colon, with elacridar, read-out: Cmax w/ Elacridar
  Cmax: 8.2 ± 0.3 µM
[5]; cecum/colon, Cecum/Colon, with elacridar, read-out: Tmax w/ Elacridar
  Tmax: 7.3 ± 4.1 h
[5]; duodenum, Duodenum, BKI 1318 alone, read-out: AUC0-12
  AUC(0-t): 235 µM·h
[5]; duodenum, Duodenum, BKI 1318 alone, read-out: Observed Cmax
  Cmax: 77.2 µM
[5]; duodenum, Duodenum, BKI 1318 alone, read-out: Tmax
  Tmax: 0.5 h
[5]; duodenum, Duodenum, with elacridar, P≤0.001, read-out: AUC0-12 w/ Elacridar
  AUC(0-t): 537 µM·h
[5]; duodenum, Duodenum, with elacridar, read-out: Cmax w/ Elacridar
  Cmax: 110 µM
[5]; duodenum, Duodenum, with elacridar, read-out: Tmax w/ Elacridar
  Tmax: 0.7 ± 0.2 h
[5]; ileum, 30 mg/kg, Ileum, BKI 1318 alone, read-out: AUC0-12
  AUC(0-t): 336 µM·h
[5]; ileum, Ileum, BKI 1318 alone, read-out: Observed Cmax
  Cmax: 79.8 µM
[5]; ileum, Ileum, BKI 1318 alone, read-out: Tmax
  Tmax: 4.3 h
[5]; ileum, Ileum, with elacridar, P≤0.05, read-out: AUC0-12 w/ Elacridar
  AUC(0-t): 1150 µM·h
[5]; ileum, Ileum, with elacridar, read-out: Cmax w/ Elacridar
  Cmax: 177 µM
[5]; ileum, Ileum, with elacridar, read-out: Tmax w/ Elacridar
  Tmax: 2 h
[5]; jejunum, Jejunum, BKI 1318 alone, read-out: AUC0-12
  AUC(0-t): 279 µM·h
[5]; jejunum, Jejunum, BKI 1318 alone, read-out: Observed Cmax
  Cmax: 108 µM
[5]; jejunum, Jejunum, BKI 1318 alone, read-out: Tmax
  Tmax: 0.8 h
[5]; jejunum, Jejunum, with elacridar, P≤0.05, read-out: AUC0-12 w/ Elacridar
  AUC(0-t): 558 µM·h
[5]; jejunum, Jejunum, with elacridar, read-out: Cmax w/ Elacridar
  Cmax: 98.1 µM
[5]; jejunum, Jejunum, with elacridar, read-out: Tmax w/ Elacridar
  Tmax: 1.8 ± 1.5 h
C. parvum [3]; 60 mg/kg once daily for 5 days, without elacridar
  Reduction in C. parvum oocyst excretion: < 1 log
C. parvum [3]
  Effect of elacridar coadministration on in vivo efficacy: increased the level by which BKI1318 reduced the Cryptosporidium burden; also recorded: improvement in efficacy
Cryptosporidium
  Efficacy in neonatal mouse model of Cryptosporidium infection: efficacious
